Reference: US20080255183A1, “N-[HETEROARYLCARBONYL]-3-THIENYL-L-ALANINE DERIVATIVES AS a5beta1 ANTAGONISTS” (ASTRAZENECA AB, priority 2007, published 2008)
Read-outs that look alike come from different tables or passages of the source.

How the values were obtained:
[1] = tested on: α5β1 integrin mediated adhesion of K562 cells; test: In vitro cell adhesion assay (b): inhibition of α5β1 integrin mediated adhesion of K562 cells to fibronectin fragment Fn9-10; assay type: cell-based, human
From the text: The assay determined the ability of compounds to inhibit the α5β1 integrin mediated adhesion of K562 cells to the ligand, a fragment of human fibronectin. The human K562 erythroleukaemia cell line (LGC Promochem, Teddington, Middlesex, UK, Catalogue No. CCL-243) was routinely maintained in RPMI 1640 medium (Sigma-Aldrich Company Ltd, Gillingham, Dorset SP8 4XT, Catalogue No. R0883) containing 10% heat-inactivated foetal calf serum (PAA lab GmbH, Pasching, Austria Catalogue No. PAA-A15-043) and 1% glutamax-1 (Invitrogen Ltd. Paisley, UK Catalogue No. 35050-038) at 37° C. with 5% CO2 at densities between 1×10^5 and 1×10^6 cells/ml.
A DNA fragment encoding the domains 9-10 (amino-acids 1325-1509) of human fibronectin (Swiss-Prot Accession No. P02751) was isolated from cDNA libraries using standard molecular biology and PCR cloning techniques. The cDNA fragment was sub-cloned into a pT7#3.3 expression vector containing a GST-epitope tag (developed at AstraZeneca; Bagnall et al., Protein Expression and Purification, 2003, 27: 1-11), and the fragment termed Fn9-10. Following expression in E. coli, the expressed protein was purified using the GST-tag using standard purification techniques.
For adhesion assay, a 96-well flat bottomed plate (Greiner Bio one ltd., Gloucester GL10 3SX Catalogue No. 655101) was coated overnight at 4° C. with 100 μl of 20 μg/ml Fn9-10 ligand in Dulbecco's PBS (Gibco#14190-94). The plate was then washed twice with 200 μl of PBS and blocked with 100 μl of 3% BSA (SigmaA7888) in PBS for 1 hour at 37° C. The plates were then washed again 3 times with 200 μl of PBS and left empty.
Test compounds were prepared as 10 mM stock solutions in DMSO (Sigma-Aldrich Company Ltd, Gillingham, Dorset SP8 4XT Catalogue No. 154938) and serially diluted with HBSS (Hanks Buffered Salt solution (Gibco Catalogue No. 14170-088)/2% DMSO to give a range of test concentrations at twice required final concentration. Aliquots (50 μl) of each compound dilution were placed into each well of the Fn9-10 coated plates. Each plate also contained control wells: maximum adhesion signal was created using wells containing 50 μl HBSS/2% DMSO, and minimum signal corresponding to no adhesion was created using wells containing 50 μl HBSS/2% DMSO/20 mM EDTA (Sigma Catalogue No. E7889).
The K562 cells were cultured to 1×10^6 cells/ml, and each culture suspension pooled. Cells were centrifuged at 1200 rpm for 2 mins, and the pellets washed with HBSS followed by HBSS/50 mM HEPES (Sigma Catalogue No. H0887). Cell pellets were pooled and re-suspended in HBSS/0.4 mM manganese chloride/50 mM HEPES (MnCl; Sigma Catalogue No. M1787) to give a final concentration of 4×10^6 cells/ml.
The assay was initiated by the addition of 50 μl of cell suspension into each coated well (200,000 cells/well), thus resulting in final desired compound concentration and a final MnCl concentration of 0.2 mM. The plates were incubated for 45 minutes at 37° C. 5% CO2. After this time, the solution was flicked off as waste, and the remaining cell layer carefully washed twice with 200 μl of PBS, and then fixed with 200 μl of 100% ethanol for 30 minutes.
After fixation, the ethanol was flicked off to waste and 100 μl of 0.1% Crystal violet stain was added to each well, and incubated at ambient temperature for 15 minutes. Excess stain was removed by rinsing 3 times under cold slow running water. The plates were blotted over tissue then solubilised by adding 50 μl of 1% Triton X100 (Sigma Catalogue No. T9284) and shaking at 500 rpm for 30 mins on plate shaker. Finally, 100 μl of deionised water was added to each well and the absorbance was determined at 590 nm on a spectrophotometer. The minimum value was subtracted from all values, and the absorbance signal was plotted against compound concentration to generate IC50 data.

[2] = biological target: recombinant human α5β1 integrin (Homo sapiens, UniProt P05556+P08648); test: In vitro binding assay (a): inhibition of binding of α5β1 integrin to a fragment of human fibronectin (Fn9-10), Origen electrochemiluminescence; conditions: geometric mean of the measured IC50 values; n given below each value
recombinant human α5β1 integrin, sequence (P08648 42-894 limits assumed): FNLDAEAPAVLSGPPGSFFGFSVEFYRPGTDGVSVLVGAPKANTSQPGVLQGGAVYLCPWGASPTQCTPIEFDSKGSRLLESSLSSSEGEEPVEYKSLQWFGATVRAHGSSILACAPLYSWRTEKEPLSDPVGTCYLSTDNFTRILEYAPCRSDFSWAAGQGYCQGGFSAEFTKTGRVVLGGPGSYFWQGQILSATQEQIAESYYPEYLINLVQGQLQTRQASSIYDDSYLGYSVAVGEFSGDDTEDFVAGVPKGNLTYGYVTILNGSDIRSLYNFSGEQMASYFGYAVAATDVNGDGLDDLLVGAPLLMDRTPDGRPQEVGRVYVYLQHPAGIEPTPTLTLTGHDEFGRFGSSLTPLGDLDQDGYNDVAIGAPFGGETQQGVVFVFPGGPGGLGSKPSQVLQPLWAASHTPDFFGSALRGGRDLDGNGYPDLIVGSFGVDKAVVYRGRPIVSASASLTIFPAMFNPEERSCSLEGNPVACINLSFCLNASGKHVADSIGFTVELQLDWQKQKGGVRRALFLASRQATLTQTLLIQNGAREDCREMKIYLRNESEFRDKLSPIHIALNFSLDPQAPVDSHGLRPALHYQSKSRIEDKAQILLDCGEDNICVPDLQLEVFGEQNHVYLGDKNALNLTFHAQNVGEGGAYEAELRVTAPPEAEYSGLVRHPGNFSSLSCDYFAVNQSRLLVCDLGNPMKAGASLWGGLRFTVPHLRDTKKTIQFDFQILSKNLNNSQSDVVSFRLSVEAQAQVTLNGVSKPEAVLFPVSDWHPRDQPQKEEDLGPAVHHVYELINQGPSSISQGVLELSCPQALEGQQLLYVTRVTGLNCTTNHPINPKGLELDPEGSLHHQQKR
recombinant human α5β1 integrin, sequence (P08648 895-1049 partner limits assumed): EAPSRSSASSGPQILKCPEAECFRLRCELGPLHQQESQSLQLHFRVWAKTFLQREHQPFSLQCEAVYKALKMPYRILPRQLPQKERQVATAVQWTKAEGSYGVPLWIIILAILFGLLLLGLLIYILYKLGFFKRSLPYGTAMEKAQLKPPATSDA
recombinant human α5β1 integrin, sequence (P05556 21-798): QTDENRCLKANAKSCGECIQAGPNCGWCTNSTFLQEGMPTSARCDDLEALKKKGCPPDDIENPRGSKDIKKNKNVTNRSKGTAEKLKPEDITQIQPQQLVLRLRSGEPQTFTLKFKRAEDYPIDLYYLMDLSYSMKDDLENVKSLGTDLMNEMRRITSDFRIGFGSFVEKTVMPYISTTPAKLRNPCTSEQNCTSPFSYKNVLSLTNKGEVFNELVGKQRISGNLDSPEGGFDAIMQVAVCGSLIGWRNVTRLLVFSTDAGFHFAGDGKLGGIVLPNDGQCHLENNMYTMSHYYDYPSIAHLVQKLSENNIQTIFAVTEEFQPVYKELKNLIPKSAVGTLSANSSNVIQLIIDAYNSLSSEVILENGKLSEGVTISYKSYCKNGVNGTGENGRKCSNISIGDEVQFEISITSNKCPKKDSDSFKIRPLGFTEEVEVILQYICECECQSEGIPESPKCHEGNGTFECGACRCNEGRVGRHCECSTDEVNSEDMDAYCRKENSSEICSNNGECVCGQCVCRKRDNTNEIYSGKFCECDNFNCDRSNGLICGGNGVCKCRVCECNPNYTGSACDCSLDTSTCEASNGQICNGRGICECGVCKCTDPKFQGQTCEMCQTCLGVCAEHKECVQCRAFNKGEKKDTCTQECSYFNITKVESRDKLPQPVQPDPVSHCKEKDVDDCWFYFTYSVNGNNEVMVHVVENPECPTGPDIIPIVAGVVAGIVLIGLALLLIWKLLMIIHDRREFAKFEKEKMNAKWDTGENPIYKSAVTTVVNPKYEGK
From the text: The assay determined the ability of compounds to inhibit binding of α5β1 integrin to a cognate ligand, a fragment of human fibronectin. The assay used Origen technology (IGEN International) to measure the compound activity. Briefly, α5β1 integrin was coated onto epoxy-paramagnetic beads (Dynal Biotech UK, Bromborough, Wirral, CH62 3QL, UK, Catalogue No 140.11) and biotinylated-fibronectin ligand was coupled to strepatividin labeled Tag-NHS-Ester (BioVeris Corporation, Witney, Oxfordshire, OX28 4GE, UK, Catalogue No 110034). The ruthenium-labeled tag emits an electrochemiluminescence signal upon stimulation which is detected by the Origen reader. Thus, interaction of integrin and ligand causes association of bead and tag, and the resulting electrochemiluminescence signal reflects the level of integrin interaction with fibronectin.
20 μg of recombinant human α5β1 was coated onto 4×10(7) epoxy-paramagnetic beads according to manufacturers instructions at 4° C. for 24 hours. Integrin coating and corresponding activity was subsequently measured for each batch but typically, 25 ng of coated protein was used per assay well.
A DNA fragment encoding the domains 9-10 (amino-acids 1325-1509) of human fibronectin (Swiss-Prot Accession No. P02751) was isolated from cDNA libraries using standard molecular biology and PCR cloning techniques. The cDNA fragment was sub-cloned into a pT73.3 expression vector containing a GST-epitope tag (developed at AstraZeneca; Bagnall et al., Protein Expression and Purification, 2003, 27: 1-11). Following expression in E. coli, the expressed protein, termed Fn9-10, was purified using the GST-tag using standard purification techniques. The recombinant Fn9-10 was subsequently biotinylated using a EZ-link Sulfo-NHS-LC-Biotinylation kit (Perbio Science UK Ltd., Cramlington, Northumberland, NE231WA, UK, Catalogue No. 21335) and made to give a final concentration of approximately 1 mg/mil. Tag-NHS-Ester was labeled with streptavidin by incubation at room temperature following manufacturers instructions and buffer-exchanged into PBS to give a concentration of 0.5 mg/ml. Immediately prior to the assay, biotinylated-Fn9-10 and Streptavidin-labeled Tag were diluted in Assay Buffer to give a final concentrations of 0.6 ug/ml and 1.5 ug/ml respectively. The Fn9-10 and Tag solutions were then mixed together in equal volumes and incubated on ice for at least 30 minutes prior to the assay.
Test compounds were prepared as 10 mM stock solutions in DMSO (Sigma-Aldrich Company Ltd, Gillingham, Dorset SP8 4XT Catalogue No. 154938) and serially diluted with 4% DMSO to give a range of test concentrations at ×4 required final concentration. Aliquots (20 μl) of each compound dilution were placed into each well of a 384-well round bottomed polypropylene plate (Matrix Technologies, Wilmslow, Cheshire, SK9 3LP, Catalogue No. 4340 384). Each plate also contained control wells: maximum signal was created using wells containing 20 μl of 4% DMSO, and minimum signal corresponding to no binding was created using wells containing 20 μl of 80 mM EDTA (Sigma Catalogue No. E7889).
For the assay, 25 ng (20 ul) of a5b1-bead suspension and […] of the Fn9-10/Tag pre-incubated solution were added to each well containing 20 μl of compound or control solution. Assay plates were then incubated at room temperature for a minimum of 6 hours before being analysed on an Origen plate reader. […]

[3] = Homo sapiens, K562, geometric mean of the measured IC50 values, n given below each value, read-out: Adhesion Assay (b) IC50

IC50 [1, 3] [nM]	IC50 [2] [nM]	IC50 ([1]; Homo sapiens, K562, single determinations listed in brackets under the geometric mean (n = 3), read-out: Adhesion Assay (b) IC50, individual measured values) [nM]	IC50 ([1]; single determinations listed in brackets under the geometric mean (n = 3), read-out: Adhesion Assay (b) IC50, individual measured values) [nM]	Compound
8	1	–	–	CNc1cccc(CCCc2ccc(C[C@H](NC(=O)c3c(Cl)cncc3Cl)C(=O)O)s2)n1 [Example 1.2, N-[(3,5-dichloropyridin-4-yl)carbonyl]-3-(5-{3-[6-(methylamino)pyridin-2-yl]propyl}thiophen-2-yl)-L-alanine]
< 3	< 1	–	–	O=C(N[C@@H](Cc1ccc(OCCc2ccc3c(n2)NCCC3)s1)C(=O)O)c1c(Cl)cncc1Cl [Example 4, N-(3,5-dichloroisonicotinoyl)-3-{5-[2-(5,6,7,8-tetrahydro-1,8-naphthyridin-2-yl)ethoxy]-2-thienyl}-L-alanine]
< 4	0.3	5	< 3	O=C(N[C@@H](Cc1ccc(CCCc2ccc3c(n2)NCCC3)s1)C(=O)O)c1c(Cl)cncc1Cl [Example 3, N-(3,5-dichloroisonicotinoyl)-3-{5-[3-(5,6,7,8-tetrahydro-1,8-naphthyridin-2-yl)propyl]-thiophen-2-yl}-L-alanine]

Further lines, the compound ahead of its results:

Compound	IC50 [1, 3] [nM]	IC50 [2] [nM]	IC50 ([1]; Homo sapiens, K562, single determinations listed in brackets under the geometric mean (n = 3), read-out: Adhesion Assay (b) IC50, individual measured values) [nM]	IC50 ([1]; single determinations listed in brackets under the geometric mean (n = 3), read-out: Adhesion Assay (b) IC50, individual measured values) [nM]
CNc1cccc(CCCc2ccc(C[C@H](NC(=O)c3c(C)noc3C)C(=O)O)s2)n1 [Example 1.1, N-[(3,5-dimethylisoxazol-4-yl)carbonyl]-3-(5-{3-[6-(methylamino)pyridin-2-yl]propyl}thiophen-2-yl)-L-alanine]	27	4	–	–
Cc1noc(C)c1C(=O)N[C@@H](Cc1ccc(CCCc2ccc3c(n2)NCCC3)s1)C(=O)O [Example 2, N-[(3,5-dimethylisoxazol-4-yl)carbonyl]-3-{5-[3-(5,6,7,8-tetrahydro-1,8-naphthyridin-2-yl)propyl]thiophen-2-yl}-L-alanine]	12	< 1	–	–
